PMC4632086, “Effects and possible mechanisms of action of acacetin on the behavior and eye morphology of Drosophila models of Alzheimer’s disease” (Scientific Reports, 2015)

How the values were obtained:
recombinant human BACE-1 = target: T1, recombinant human BACE-1 (Homo sapiens, UniProt P56817); assay: FRET-based enzyme assay, BACE-1 inhibition; type: biochemical
T1 construct: purchased R&D Systems (Minneapolis, MN, USA)

APP-CTF = assay: Western blot, APP-CTF in heads of elav < APP/BACE-1 flies; type: in vivo, Drosophila melanogaster; conditions: 100, 300, and 500 μM; 20-day-old males
Experimental: (§1) The elav < APP/BACE-1 flies were cultured from the egg stage, as described previously. The lysates were obtained from the heads of 50 male flies (20 days old) by placing the heads in 100 μL RIPA buffer (pH 8.0) containing a 1% protease inhibitor cocktail. The controls received 0.1% DMSO. The lysates were centrifuged at 14,000 rpm for 30 min at 4 °C. The protein content of the supernatant was determined using a Bradford Protein Assay kit (Sigma-Aldrich) and BSA was used as the standard. The total proteins (30 μg/sample for APP and BACE-1 detection; 70 μg/sample for Aβ detection) were mixed with an equal volume of 5× sample buffer[81] containing 40 mM of DL-dithiothreitol, boiled for 10 min, and then loaded onto 8, 10, and 12% sodium dodecyl sulfate-polyacrylamide gels using a Mini-Protean 3 electrophoresis cell (Bio-Rad, Hercules, CA, USA) for APP, APP-CTF (APP-αCTF and APP-βCTF) and AICD, BACE-1, and Aβ detection, respectively. […] The differences in protein expression were quantified using a Molecular Imager Gel Doc XR system (Bio-Rad, Hercules, CA, USA) and normalized to actin expression on the same membrane. The results are expressed as the means ± SEs of duplicate samples from three independent experiments.

GMR < APP/BACE-1 flies [1] = assay: Cason's trichrome staining of eye sections (photoreceptor degeneration); type: in vivo, Drosophila melanogaster; conditions: 100, 300, and 500 μM; 5- and 15-day-old males
Experimental: Cason’s trichrome staining was performed, as described by Wang et al.[33] and Perumalsamy et al.[77]. Briefly, the heads of 5- and 15-day-old male GMR < APP/BACE-1 flies, cultured in vials as stated previously, were fixed in a 4% paraformaldehyde buffer solution (pH 7.4) overnight at 4 °C, and paraffin-embedded preparations of the fly heads were then sectioned at 10 μm thickness using a HM 340E rotary microtome (Thermo Scientific Microm, Walldorf, Germany). The sections were dried at 40 °C overnight, subsequently deparaffinized with CitriSolv (Fisher Scientific, Fair Lawn, NJ, USA), and rehydrated using a series of ethanol solutions in phosphate-buffered saline (PBS). The rehydrated paraffin sections were soaked in Carson’s trichrome solution for 15 min, and the slides were gently swashed in tap water and subsequently rinsed three times in distilled water (DW). The excess water was removed with tissue paper, and the samples were mounted using Vectashield H-1000 mounting medium (Vector Laboratories, Burlingame, CA, USA).

Aβ = assay: Western blot, Aβ in heads of elav < APP/BACE-1 flies; type: in vivo, Drosophila melanogaster; conditions: 20-day-old males
Experimental: as §1, with “respectively. After electrophoresis at 110 V in 2 h, the proteins from the gels were transferred onto a polyvinyl difluoride membrane (Pall Corporation, Pensacola, FL, USA) using an electroblotting apparatus. The membrane was then blocked with 5% skim milk (BD Difco, Flanklin Lakes, NJ, USA) in PBS containing 0.1% (v/v) Tween-20 (0.1% PBS-T) at room temperature for 1 h, and further incubated overnight at 4 °C with a 1:4,000 dilution of an anti-APP C-terminal antibody to detect the cleaved APP product, a 1:1,000 dilution of anti-BACE-1, and a 1:1,000 dilution of anti-amyloid (4G8). After washing with 0.1% PBS-T three times at 10 min intervals, the membranes were further incubated for 2 h with a goat anti-rabbit IgG H&L (HRP) secondary antibody at a1:4,000 dilution for APP and BACE-1 and a goat anti-mouse lgG-HRP at a 1:5,000 dilution for β-amyloid.” for “respectively.”

human BACE-1 mRNA = assay: Real-time qRT-PCR, human BACE-1 mRNA in elav < APP/BACE-1 flies; type: in vivo, Drosophila melanogaster; conditions: 100, 300, and 500 μM; 20-day-old males
Experimental: (§2) Real-time qRT-PCR with SYBR Green dye was performed to determine whether acacetin affected the expression levels of the human APP and BACE-1 mRNAs in the transgenic flies. The elav < APP/BACE-1 and elav < GFP flies were cultured from the egg stage in vials, as stated previously. The controls received 0.1% DMSO only. The total RNA was extracted from 30 heads (30 mg) of male elav < APP/BACE-1 and elav < GFP flies (20 days old) using the RNeasy Mini Kit (Qiagen, Hilden, Germany) according to the manufacturer’s instructions. The residual genomic DNA was removed using RQ1 RNase-Free DNase (Promega, Fitchburg, WI, USA), and 1 μg of the total RNA from each sample was used for complementary DNA (cDNA) synthesis with an oligo (dT) 12–18 primer (Invitrogen, Carlsbad, CA, USA) according to the protocol of the SuperScript III Reverse Transcriptase Kit. Real-time qRT-PCR was performed in 96-well plates using the StepOne Plus Real-Time PCR System (Applied Biosystems, Darmstadt, Germany). […] The mRNA expression levels of the target genes were normalized to the mRNA expression level of the housekeeping gene rp 49 that encodes the Drosophila ribosomal protein 49, and analyzed by the 2^–ΔΔCT method using the StepOne Software v2.3 and DataAssist Software (Applied Biosystems). The results are expressed as the means ± SEs of duplicate samples from three independent experiments.

human APP mRNA = assay: Real-time qRT-PCR, human APP mRNA in elav < APP/BACE-1 flies; type: in vivo, Drosophila melanogaster; conditions: 100, 300, and 500 μM; 20-day-old males; compared to vehicle
Experimental: as §2

GMR < APP/BACE-1 flies [2] = assay: Congo red staining of amyloid plaques in compound eyes; type: in vivo, Drosophila melanogaster; conditions: 5- and 15-day-old flies
Experimental: Congo red staining was performed to detect the amyloid plaques in the Drosophila AD model. The paraffin-embedded sections described above were deparaffinized and then stained using NovaUltra Special Stain Kits (IHC World, Woodstock, MD, USA) according to the manufacturer’s instructions. Finally, the sections were dehydrated and mounted with mounting medium. The images were observed and captured using an EZ4 HD stereo microscope.

T1 sequence (P56817 46-501): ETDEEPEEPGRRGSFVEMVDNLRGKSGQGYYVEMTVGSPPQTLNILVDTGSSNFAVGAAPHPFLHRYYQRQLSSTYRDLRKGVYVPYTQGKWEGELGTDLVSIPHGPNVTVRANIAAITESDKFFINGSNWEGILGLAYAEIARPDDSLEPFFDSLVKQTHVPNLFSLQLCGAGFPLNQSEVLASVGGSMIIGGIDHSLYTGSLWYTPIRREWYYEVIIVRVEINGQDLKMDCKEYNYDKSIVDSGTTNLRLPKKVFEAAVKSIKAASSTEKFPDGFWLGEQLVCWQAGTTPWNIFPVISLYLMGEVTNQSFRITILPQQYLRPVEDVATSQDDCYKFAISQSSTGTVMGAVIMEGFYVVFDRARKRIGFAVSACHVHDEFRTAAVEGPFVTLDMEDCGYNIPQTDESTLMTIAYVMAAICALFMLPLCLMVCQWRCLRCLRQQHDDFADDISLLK

## COc1ccc(-c2cc(=O)c3c(O)cc(O)cc3o2)cc1 [acacetin]
Recombinant human BACE-1; based on IC50 values
  fold more potent inhibitor of BACE-1 than maslinic acid: 5.5 fold
  fold more potent inhibitor of BACE-1 than oleanolic acid: 4.0 fold
Recombinant human BACE-1; pH 4.5, 1 h at 25 °C, read-out: IC50, μM (95% CL)
  IC50: 88.5 µM
Recombinant human BACE-1; slope of concentration-inhibition fit, listed as Natural acacetin
  Slope ± SE: 0.4 ± 0.04
APP-CTF
  APP-CTF, % of the control levels: approximately 80%
GMR < APP/BACE-1 flies [1]
  photoreceptor degeneration: partially suppressed the photoreceptor degeneration
Aβ; 100 μM
  Aβ levels, % of the controls: 71%
Aβ; 300 μM
  Aβ levels, % of the controls: 72%
Aβ; 500 μM
  Aβ levels, % of the controls: 47%
Human BACE-1 mRNA
  human BACE-1 mRNA levels, % of the control levels: 82–89%
Human APP mRNA
  reduction in the APP mRNA levels: 69–82%
GMR < APP/BACE-1 flies [2]; 500 μM
  amyloid plaque deposits: a few amyloid plaque deposits were also detected
GMR < APP/BACE-1 flies [2]; 100 and 300 μM
  number of amyloid deposits: significantly suppressed the number of amyloid deposits
